Key:
Assay in all cases: relative viability (nuclei count vs DMSO), 5 days (fraction); higher = more cells survive
[1] = system: 201T
How it was run: (§1)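 Lung cancer cell lines, seeded in 1536-well plates, were treated the following day by pin tool with a single drug or with five library-drug doses (not always all listed) in √10 steps on top of a fixed anchor-drug dose. Cells were fixed and nuclei stained in one step after 5 days, and nuclei were counted. Relative viability is the nuclei count for treated wells divided by that for vehicle wells, reported as medians of duplicate plates.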

[2] = system: A-427
How it was run: as §1

[3] = system: COR-L 105
How it was run: as §1

[4] = system: COR-L23
How it was run: as §1

[5] = system: EKVX
How it was run: as §1

[6] = system: HARA
How it was run: as §1

[7] = system: HCC-15
How it was run: as §1

[8] = system: HCC-827
How it was run: as §1

[9] = system: LCLC-103H
How it was run: as §1

[10] = system: LK-2
How it was run: as §1

[11] = system: NCI-H1437
How it was run: as §1

[12] = system: NCI-H1666
How it was run: as §1

[13] = system: NCI-H1975
How it was run: as §1

[14] = system: NCI-H23
How it was run: as §1

[15] = system: NCI-H441
How it was run: as §1

[16] = system: NCI-H520
How it was run: as §1

[17] = system: NCI-H596
How it was run: as §1

[18] = system: NCI-H650
How it was run: as §1

[19] = system: NCI-H838
How it was run: as §1

[20] = system: SK-MES-1
How it was run: as §1

[21] = system: SW 900
How it was run: as §1

`Clc1ccc(Nc2nnc(Cc3ccncc3)c3ccccc23)cc1` [Vatalanib] + COc1cc2c(Oc3ccc(NC(=O)C4(C(=O)Nc5ccc(F)cc5)CC4)cc3F)ccnc2cc1OCCCN1CCOCC1 [Foretinib] (partner 0.25 µM) showed a relative viability ([1]; first compound 0.04 µM) of 1.17, a relative viability ([1]; first compound 0.1265 µM) of 0.976 and a relative viability ([1]; first compound 0.4 µM) of 1.16. It also gave a relative viability ([1]; first compound 1.265 µM) of 1.09, a relative viability ([1]; first compound 4 µM) of 0.984 and a relative viability ([2]; first compound 0.04 µM) of 1.06. It also gave a relative viability ([2]; first compound 0.1265 µM) of 0.993, a relative viability ([2]; first compound 0.4 µM) of 1.14 and a relative viability ([2]; first compound 1.265 µM) of 0.993. It also gave a relative viability ([2]; first compound 4 µM) of 1.11, a relative viability ([3]; first compound 0.04 µM) of 0.885 and a relative viability ([3]; first compound 0.1265 µM) of 1.23. The relative viability ([3]; first compound 0.4 µM) was 1.24, the relative viability ([3]; first compound 1.265 µM) was 0.785 and the relative viability ([3]; first compound 4 µM) was 1.12. The relative viability ([4]; first compound 0.04 µM) was 1.08, the relative viability ([4]; first compound 0.1265 µM) was 0.827 and the relative viability ([4]; first compound 0.4 µM) was 1.15. For the same molecule, the relative viability ([4]; first compound 1.265 µM) was 1.04, the relative viability ([4]; first compound 4 µM) was 0.92 and the relative viability ([5]; first compound 0.04 µM) was 0.836. For the same molecule, the relative viability ([5]; first compound 0.1265 µM) was 0.838, the relative viability ([5]; first compound 0.4 µM) was 0.551 and the relative viability ([5]; first compound 4 µM) was 0.727. For the same molecule, the relative viability ([6]; first compound 0.04 µM) was 0.853, the relative viability ([6]; first compound 0.1265 µM) was 0.757 and the relative viability ([6]; first compound 0.4 µM) was 0.807. It also gave a relative viability ([6]; first compound 1.265 µM) of 0.92, a relative viability ([6]; first compound 4 µM) of 0.852 and a relative viability ([7]; first compound 0.04 µM) of 1. It also gave a relative viability ([7]; first compound 0.1265 µM) of 1.06, a relative viability ([7]; first compound 0.4 µM) of 1.02 and a relative viability ([7]; first compound 1.265 µM) of 0.996. The relative viability ([7]; first compound 4 µM) was 1.03, the relative viability ([8]; first compound 0.04 µM) was 1.07 and the relative viability ([8]; first compound 0.1265 µM) was 1.09. It also gave a relative viability ([8]; first compound 0.4 µM) of 0.942, a relative viability ([8]; first compound 1.265 µM) of 0.927 and a relative viability ([8]; first compound 4 µM) of 1.03. It also gave a relative viability ([9]; first compound 0.04 µM) of 0.829, a relative viability ([9]; first compound 0.1265 µM) of 0.705 and a relative viability ([9]; first compound 0.4 µM) of 0.752. It also gave a relative viability ([9]; first compound 1.265 µM) of 0.739, a relative viability ([9]; first compound 4 µM) of 0.756 and a relative viability ([10]; first compound 0.04 µM) of 1.14. It also gave a relative viability ([10]; first compound 0.1265 µM) of 1.19, a relative viability ([10]; first compound 0.4 µM) of 1.29 and a relative viability ([10]; first compound 1.265 µM) of 1.6. The relative viability ([10]; first compound 4 µM) was 1.5, the relative viability ([11]; first compound 0.04 µM) was 1.25 and the relative viability ([11]; first compound 0.1265 µM) was 1.27. For the same molecule, the relative viability ([11]; first compound 0.4 µM) was 1.4, the relative viability ([11]; first compound 1.265 µM) was 1.21 and the relative viability ([11]; first compound 4 µM) was 1.26. It also gave a relative viability ([12]; first compound 0.04 µM) of 1, a relative viability ([12]; first compound 0.1265 µM) of 1.02 and a relative viability ([12]; first compound 0.4 µM) of 0.997. For the same molecule, the relative viability ([12]; first compound 1.265 µM) was 0.962, the relative viability ([12]; first compound 4 µM) was 0.925 and the relative viability ([13]; first compound 0.04 µM) was 0.968. The relative viability ([13]; first compound 0.1265 µM) was 0.885, the relative viability ([13]; first compound 0.4 µM) was 0.953 and the relative viability ([13]; first compound 1.265 µM) was 0.866. The relative viability ([13]; first compound 4 µM) was 0.832, the relative viability ([14]; first compound 0.04 µM) was 0.928 and the relative viability ([14]; first compound 0.1265 µM) was 0.945. It also gave a relative viability ([14]; first compound 0.4 µM) of 0.931, a relative viability ([14]; first compound 1.265 µM) of 0.796 and a relative viability ([14]; first compound 4 µM) of 1.02. It also gave a relative viability ([15]; first compound 0.04 µM) of 0.994, a relative viability ([15]; first compound 0.1265 µM) of 0.977 and a relative viability ([15]; first compound 0.4 µM) of 1.15. It also gave a relative viability ([15]; first compound 1.265 µM) of 0.881, a relative viability ([15]; first compound 4 µM) of 0.893 and a relative viability ([16]; first compound 0.04 µM) of 0.875. The relative viability ([16]; first compound 0.1265 µM) was 0.662, the relative viability ([16]; first compound 0.4 µM) was 0.781 and the relative viability ([16]; first compound 1.265 µM) was 0.842. It also gave a relative viability ([16]; first compound 4 µM) of 0.697, a relative viability ([17]; first compound 0.04 µM) of 0.775 and a relative viability ([17]; first compound 0.1265 µM) of 1.06. For the same molecule, the relative viability ([17]; first compound 0.4 µM) was 0.909, the relative viability ([17]; first compound 1.265 µM) was 0.81 and the relative viability ([17]; first compound 4 µM) was 0.771. For the same molecule, the relative viability ([18]; first compound 0.04 µM) was 1.08, the relative viability ([18]; first compound 0.1265 µM) was 1.01 and the relative viability ([18]; first compound 1.265 µM) was 0.973. The relative viability ([18]; first compound 4 µM) was 0.978, the relative viability ([19]; first compound 0.04 µM) was 1.11 and the relative viability ([19]; first compound 0.1265 µM) was 1.03. The relative viability ([19]; first compound 0.4 µM) was 1.13, the relative viability ([19]; first compound 1.265 µM) was 1.04 and the relative viability ([19]; first compound 4 µM) was 1.01. For the same molecule, the relative viability ([20]; first compound 0.04 µM) was 1.02, the relative viability ([20]; first compound 0.1265 µM) was 0.82 and the relative viability ([20]; first compound 0.4 µM) was 0.943. It also gave a relative viability ([20]; first compound 1.265 µM) of 0.881, a relative viability ([20]; first compound 4 µM) of 0.692 and a relative viability ([21]; first compound 0.1265 µM) of 0.761. It also gave a relative viability ([21]; first compound 0.4 µM) of 0.942, a relative viability ([21]; first compound 1.265 µM) of 0.922 and a relative viability ([21]; first compound 4 µM) of 0.918.
